{
  "source": "patent US20260137820A1",
  "about": "“TRIFUNCTIONAL COMPOUND AND USE THEREOF” (PEKING UNIVERSITY, priority 2022, published 2026)",
  "key": {"Human FAP Protein": {"biological_target": "T1, Human FAP Protein (Homo sapiens, UniProt Q12884)", "T1 construct": "His; purchased Novoprotein (China)", "T1 sequence (Q12884 1-760)": "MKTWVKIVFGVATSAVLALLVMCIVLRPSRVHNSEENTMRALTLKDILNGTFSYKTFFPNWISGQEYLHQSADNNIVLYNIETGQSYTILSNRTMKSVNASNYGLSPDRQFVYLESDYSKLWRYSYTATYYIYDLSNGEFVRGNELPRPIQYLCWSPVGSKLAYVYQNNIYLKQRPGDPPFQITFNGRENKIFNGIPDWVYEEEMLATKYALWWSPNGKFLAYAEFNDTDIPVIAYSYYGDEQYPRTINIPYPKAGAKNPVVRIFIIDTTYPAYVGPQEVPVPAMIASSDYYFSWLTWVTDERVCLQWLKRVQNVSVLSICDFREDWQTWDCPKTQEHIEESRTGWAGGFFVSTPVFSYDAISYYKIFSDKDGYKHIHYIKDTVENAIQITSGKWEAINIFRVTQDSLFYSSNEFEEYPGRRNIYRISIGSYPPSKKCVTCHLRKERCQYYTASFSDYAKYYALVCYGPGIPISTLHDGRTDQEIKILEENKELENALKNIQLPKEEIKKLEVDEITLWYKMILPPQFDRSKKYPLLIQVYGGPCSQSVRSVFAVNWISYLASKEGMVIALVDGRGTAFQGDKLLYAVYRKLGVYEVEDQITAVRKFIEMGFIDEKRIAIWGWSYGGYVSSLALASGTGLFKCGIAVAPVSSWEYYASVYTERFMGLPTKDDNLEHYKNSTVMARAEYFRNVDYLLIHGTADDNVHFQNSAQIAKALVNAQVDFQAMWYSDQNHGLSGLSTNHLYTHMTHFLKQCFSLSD", "test": "Surface plasmon resonance, multi-cycle mode", "type": "binding", "details": "SPR multi-cycle", "method": "According to US Pharmacopeia USP43 IMMUNOLOGICAL TEST METHODS-SURFACE PLASMON RESONANCE<1105> and Chinese Pharmacopoeia 2020, Volume IV, Surface plasmon resonance method, Label-free Immunochemistry (IV), 3429 Immunochemistry, General Rule, a surface plasmon resonance experiment was carried out.\nA surface plasma chromatograph from Cytiva was used for measurement. Before protein injection, 400 mM condensing agent 1-ethyl-(3-dimethylaminopropyl)carbodiimide hydrochloride and 100 mM N-hydroxysuccinimide were mixed, and a CM5 sensor chip was activated with this mixture for 420 seconds at a flow rate of 10 μL/min. 50 μg/mL protein was then injected into an Fc2 sample channel at a flow rate of 10 μL/min to achieve a protein immobilization level of about 8000-15000 RU. In the control group, no protein was injected. Subsequently, the unreacted chip was blocked with 1M ethanolamine hydrochloride-NaOH at a flow rate of 10 μL/min for 420 seconds.\nDifferent gradient solutions were injected into channels Fc1-Fc2 at a flow rate of 30 μL/min, followed by a 60-second binding phase and a 90-second dissociation phase, and data were collected."}, "HT-1080-FAP cells": {"tested_on": "HT-1080-FAP cells", "test": "Determination of IC50 in cell experiment (competition with ^68Ga-FAPI-04)", "type": "cell-based", "details": "Homo sapiens; vs 0.75 nM ^68Ga-FAPI-04, 37° C., 1 hour", "method": "Cell model: A human fibrosarcoma cell line (HT-1080-FAP) with high FAP expression was constructed by transfection of an FAP plasmid into a human fibrosarcoma cell line (HT-1080) by WuXi Biologics (China).\nHT-1080-FAP cells were inoculated into a 24-well plate 24 hours in advance, with the density being about 30% (calculated and estimated), 10^5 cells (countable) per well. 0.5 mL of a complete medium was added. The medium was changed to a serum-free medium. 12 groups of FAPI-CB-01 solutions with a concentration gradient of 0-5000 nM were set up, with internal replicates n=4 for each group. […] 0.75 nM ^68Ga-FAPI-04 was added to each well, followed by incubation at 37° C. for 1 hour. After washing twice with cold PBS and lysis, the radioactivity count was measured."}},
  "data": [
    {"compound": "N#C[C@@H]1CC(F)(F)CN1C(=O)CNC(=O)c1ccnc2ccc(OCCCN3CCN(C(=O)[C@H](CCCCNC(=O)c4ccc(OS(=O)(=O)F)cc4)NC(=O)CN4CCN(CC(=O)O)CCN(CC(=O)O)CCN(CC(=O)O)CC4)CC3)cc12", "note": "[FAPI-CB-01]", "values": [
      {"measurement": "affinity compared with FAPI-04", "setting": "Human FAP Protein", "value": "improved by approximately two orders of magnitude"},
      {"measurement": "binding rate compared with FAPI-04", "setting": "Human FAP Protein", "value": "significantly increased"},
      {"measurement": "dissociation rate compared with FAPI-04", "setting": "Human FAP Protein", "value": "decreased"},
      {"measurement": "Kd", "setting": "Human FAP Protein; 1:1 binding model", "value": 0.00462, "unit": "nM"},
      {"measurement": "Rmax (maximum theoretical analyte binding capacity)", "setting": "Human FAP Protein; 1:1 binding model", "value": 29.3, "unit": "RU"},
      {"measurement": "kd", "setting": "Human FAP Protein; 1:1 binding model", "value": "4.79e-05", "unit": "s⁻¹"},
      {"measurement": "kon", "setting": "Human FAP Protein; 1:1 binding model, read-out: ka", "value": "1.04e+07", "unit": "M⁻¹ s⁻¹"},
      {"measurement": "IC50", "setting": "HT-1080-FAP cells", "value": "11.6 ± 0.32", "unit": "nM"}
    ]}
  ]
}
